Experiments:
Format in all cases: cell-based
OVCAR-5 = test: NCI 60 cell line screen (SRB), Ovarian Cancer; conditions: OVCAR-5 (Ovarian Cancer)
HT29 = test: NCI 60 cell line screen (SRB), Colon Cancer
A498 = test: NCI 60 cell line screen (SRB), Renal Cancer
UACC-257 = test: NCI 60 cell line screen (SRB), Melanoma; conditions: UACC-257 (Melanoma)
SNB-75 = test: NCI 60 cell line screen (SRB), CNS Cancer; conditions: SNB-75 (CNS Cancer)
PC-3 = test: NCI 60 cell line screen (SRB), Prostate Cancer; conditions: PC-3 (Prostate Cancer)
MALME-3M = test: NCI 60 cell line screen (SRB), Melanoma; conditions: MALME-3M (Melanoma)
786-0 = test: NCI 60 cell line screen (SRB), Renal Cancer; conditions: 786-0 (Renal Cancer)
HL-60(TB) = test: NCI 60 cell line screen (SRB), Leukemia; conditions: HL-60(TB) (Leukemia)
SK-MEL-2 = test: NCI 60 cell line screen (SRB), Melanoma; conditions: SK-MEL-2 (Melanoma)
M14 = test: NCI 60 cell line screen (SRB), Melanoma
SF-295 = test: NCI 60 cell line screen (SRB), CNS Cancer; conditions: SF-295 (CNS Cancer)
NCI-H460 = test: NCI 60 cell line screen (SRB), Non-Small Cell Lung Cancer
TK-10 = test: NCI 60 cell line screen (SRB), Renal Cancer; conditions: TK-10 (Renal Cancer)
EKVX = test: NCI 60 cell line screen (SRB), Non-Small Cell Lung Cancer
SR = test: NCI 60 cell line screen (SRB), Leukemia
IGROVI = test: NCI 60 cell line screen (SRB), Ovarian Cancer
UACC-62 = test: NCI 60 cell line screen (SRB), Melanoma; conditions: UACC-62 (Melanoma)
CCRF-CEM = test: NCI 60 cell line screen (SRB), Leukemia
HOP-62 = test: NCI 60 cell line screen (SRB), Non-Small Cell Lung Cancer; conditions: HOP-62 (Non-Small Cell Lung Cancer)
HCT-116 = test: NCI 60 cell line screen (SRB), Colon Cancer; conditions: HCT-116 (Colon Cancer)
NCI-H226 = test: NCI 60 cell line screen (SRB), Non-Small Cell Lung Cancer
SK-OV-3 = test: NCI 60 cell line screen (SRB), Ovarian Cancer; conditions: SK-OV-3 (Ovarian Cancer)
SK-MEL-5 = test: NCI 60 cell line screen (SRB), Melanoma; conditions: SK-MEL-5 (Melanoma)
MDA-MB231/ATCC = test: NCI 60 cell line screen (SRB), Breast Cancer
MOLT-4 = test: NCI 60 cell line screen (SRB), Leukemia; conditions: for Log10GI50 / Log10LC50 / Log10TGI: MOLT-4 (Leukemia); for drug concentration necessary to achieve primary growth inhibition (percentage growth +50): MOLT-4, read from dose response curves FIGS. 10a-10e
NCI-H23 = test: NCI 60 cell line screen (SRB), Non-Small Cell Lung Cancer
NCI-H522 = test: as above
HCC-2998 = test: NCI 60 cell line screen (SRB), Colon Cancer; conditions: HCC-2998 (Colon Cancer)
OVCAR-4 = test: NCI 60 cell line screen (SRB), Ovarian Cancer; conditions: OVCAR-4 (Ovarian Cancer)
MDA-MB-435 = test: NCI 60 cell line screen (SRB), Breast Cancer; conditions: MDA-MB-435 (Breast Cancer)
SF-539 = test: NCI 60 cell line screen (SRB), CNS Cancer; conditions: SF-539 (CNS Cancer)
K-562 = test: NCI 60 cell line screen (SRB), Leukemia; conditions: K-562 (Leukemia)

## COC1OC2(C)CCC3CCCC(CCOC(=O)c4cccc(C(=O)OCCC5CCCC6CCC7(C)OOC56C(OC)O7)c4)C31OO2 (stereo not shown) [Compound 10, Trioxane Bis-ester Dimer]
OVCAR-5
  Log10GI50: −5.68 M
  Log10LC50: >−4.30 M
  Log10TGI: >−4.30 M
HT29
  Log10GI50: −6.35 M
  Log10LC50: >−4.30 M
  Log10TGI: >−4.30 M
A498
  Log10GI50: >−4.30 M
  Log10LC50: >−4.30 M
  Log10TGI: >−4.30 M
UACC-257
  Log10GI50: −5.03 M
  Log10LC50: >−4.30 M
  Log10TGI: >−4.30 M
SNB-75
  Log10GI50: −5.56 M
  Log10LC50: >−4.30 M
  Log10TGI: >−4.30 M
PC-3
  Log10GI50: −7.09 M
  Log10LC50: >−4.30 M
  Log10TGI: >−4.30 M
MALME-3M
  Log10GI50: −5.56 M
  Log10LC50: >−4.30 M
  Log10TGI: >−4.30 M
786-0
  Log10GI50: −5.57 M
  Log10LC50: >−4.30 M
  Log10TGI: >−4.30 M
HL-60(TB)
  Log10GI50: −7.21 M
  Log10LC50: >−4.30 M
  Log10TGI: −6.56 M
SK-MEL-2
  Log10GI50: −5.47 M
  Log10LC50: >−4.30 M
  Log10TGI: >−4.30 M
M14
  Log10GI50: −5.08 M
  Log10LC50: >−4.30 M
  Log10TGI: >−4.30 M
SF-295
  Log10GI50: −5.01 M
  Log10LC50: >−4.30 M
  Log10TGI: >−4.30 M
NCI-H460
  Log10GI50: −5.76 M
  Log10LC50: >−4.30 M
  Log10TGI: >−4.30 M
TK-10
  Log10GI50: −5.39 M
  Log10LC50: >−4.30 M
  Log10TGI: >−4.30 M
EKVX
  Log10GI50: −5.31 M
  Log10LC50: >−4.30 M
  Log10TGI: >−4.30 M
SR
  Log10GI50: <−8.30 M
  Log10LC50: >−4.30 M
  Log10TGI: −7.49 M
IGROVI
  Log10GI50: −5.34 M
  Log10LC50: >−4.30 M
  Log10TGI: −4.42 M
UACC-62
  Log10GI50: −5.68 M
  Log10LC50: >−4.30 M
  Log10TGI: >−4.30 M
CCRF-CEM
  Log10GI50: −7.15 M
  Log10LC50: >−4.30 M
  Log10TGI: −5.70 M
HOP-62
  Log10GI50: −5.11 M
  Log10LC50: >−4.30 M
  Log10TGI: >−4.30 M
HCT-116
  Log10GI50: −6.43 M
  Log10LC50: >−4.30 M
  Log10TGI: >−4.30 M
NCI-H226
  Log10GI50: −5.64 M
  Log10LC50: >−4.30 M
  Log10TGI: >−4.30 M
SK-OV-3
  Log10LC50: >−4.30 M
  Log10TGI: >−4.30 M
SK-MEL-5
  Log10GI50: −5.57 M
  Log10LC50: >−4.30 M
  Log10TGI: >−4.30 M
MDA-MB231/ATCC
  Log10GI50: −5.27 M
  Log10LC50: >−4.30 M
  Log10TGI: >−4.30 M
MOLT-4
  Log10GI50: −7.68 M
  drug concentration necessary to achieve primary growth inhibition (percentage growth +50): less than 10^−7 molar
MOLT-4; listed as Metaphtalate Dimer
  Log10LC50: >−4.30 M
  Log10TGI: −6.53 M
MOLT-4; listed as metaphthalate dimer
  Log10LC50: −4.05 M
  Log10TGI: −5.80 M
NCI-H23
  Log10GI50: −6.29 M
  Log10LC50: >−4.30 M
  Log10TGI: >−4.30 M
NCI-H522
  Log10GI50: −6.13 M
  Log10LC50: >−4.30 M
  Log10TGI: >−4.30 M
HCC-2998
  Log10GI50: −5.32 M
  Log10LC50: >−4.30 M
  Log10TGI: >−4.30 M
OVCAR-4
  Log10GI50: >−4.0 M
  Log10LC50: >−4.30 M
  Log10TGI: >−4.30 M
MDA-MB-435
  Log10GI50: −5.93 M
  Log10LC50: >−4.30 M
  Log10TGI: >−4.30 M
SF-539
  Log10GI50: −6.11 M
  Log10LC50: >−4.30 M
  Log10TGI: >−4.30 M
K-562
  Log10GI50: −6.79 M
  Log10LC50: >−4.30 M
  Log10TGI: −5.35 M

## CC(=O)O[C@H]1C(=O)[C@@]2(C)[C@H]([C@H](OC(=O)c3ccccc3)[C@]3(O)C[C@H](OC(=O)[C@H](O)[C@@H](NC(=O)c4ccccc4)c4ccccc4)C(C)=C1C3(C)C)[C@]1(OC(C)=O)CO[C@@H]1C[C@@H]2O [Paclitaxel, paclitaxel, reference compound]
OVCAR-5
  Log10GI50: −9.38 M
  Log10LC50: >−4.00 M
  Log10TGI: −4.92 M
HT29
  Log10GI50: <−13.00 M
  Log10LC50: −4.39 M
A498
  Log10GI50: −7.14 M
  Log10LC50: −4.13 M
UACC-257
  Log10GI50: −10.30 M
  Log10LC50: −4.03 M
  Log10TGI: −4.52 M
PC-3
  Log10GI50: −10.85 M
  Log10LC50: >−4.00 M
  Log10TGI: >−4.00 M
MALME-3M
  Log10LC50: −4.11 M
  Log10TGI: −4.46 M
786-0
  Log10GI50: −8.01 M
  Log10LC50: >−4.00 M
  Log10TGI: >−4.00 M
HL-60(TB)
  Log10GI50: −11.57 M
  Log10LC50: >−4.53 M
  Log10TGI: −4.53 M
SK-MEL-2
  Log10GI50: −9.53 M
  Log10LC50: >−4.00 M
M14
  Log10GI50: −11.73 M
  Log10LC50: −4.13 M
  Log10TGI: −4.62 M
NCI-H460
  Log10GI50: −12.16 M
  Log10LC50: >−4.00 M
  Log10TGI: −4.92 M
TK-10
  Log10GI50: −7.89 M
SR
  Log10LC50: >−4.00 M
  Log10TGI: >−4.00 M
IGROVI
  Log10GI50: −8.61 M
  Log10LC50: >−4.00 M
  Log10TGI: −4.19 M
UACC-62
  Log10GI50: −10.46 M
  Log10LC50: −4.19 M
  Log10TGI: −4.71 M
CCRF-CEM
  Log10GI50: −11.61 M
  Log10LC50: >−4.00 M
  Log10TGI: >−4.00 M
HOP-62
  Log10GI50: −9.67 M
  Log10LC50: −4.10 M
  Log10TGI: −4.80 M
HCT-116
  Log10GI50: <−13.00 M
  Log10LC50: >−4.00 M
  Log10TGI: −4.82 M
MDA-MB231/ATCC
  Log10GI50: −8.54 M
  Log10TGI: −4.84 M
MOLT-4
  Log10GI50: −11.07 M
  Log10LC50: >−4.00 M
  Log10TGI: >−4.00 M
  drug concentration necessary to achieve primary growth inhibition (percentage growth +50): less than 10^−8 molar
NCI-H522
  Log10GI50: >−13.00 M
  Log10LC50: >−4.00 M
  Log10TGI: −11.20 M
HCC-2998
  Log10GI50: −12.34 M
  Log10LC50: −4.26 M
  Log10TGI: −4.77 M
OVCAR-4
  Log10GI50: −5.00 M
  Log10LC50: >−4.00 M
  Log10TGI: −4.19 M
MDA-MB-435
  Log10GI50: <−13.00 M
SF-539
  Log10GI50: −11.09 M
  Log10LC50: >−4.00 M
K-562
  Log10GI50: −10.83 M
  Log10LC50: >−4.00 M
  Log10TGI: >−4.00 M

— patent USRE38117E1, “Trioxane dimer compound having antiproliferative and antitumor activities” (Hauser, Inc., priority 1995, dated 2003)
